We go through 1 molecule from patent US20210147811A1, “METHODS FOR IN VITRO EXPANSION OF ADULT TISSUE STEM CELLS” (CEDARS-SINAI MEDICAL CENTER, priority 2018, published 2021).

Test [1] concerns freshly isolated murine distal total epithelial cells. Nature of the test: 3D organoid culture of freshly isolated murine distal total epithelial cells. The test is classed as cell-based. From the text: (§1) FIG. 1. Experimental design. Preconditioning of donor cells, including addition of small molecules such as ROCK inhibitor, pifithrin α, or combined together, and generation of organoids.
FIG. 3. […] Addition of the TGF-β inhibitor, SB 431542 to the culture medium increases the % colony forming efficiency of freshly isolated murine lung epithelial cells. Addition of Pifithrin α causes an increase in organoids size, while addition of ROCKi causes an increase in the colony forming efficiency.
FIG. 13. Effect of p53 and ROCKi inhibition on murine freshly isolated distal total epithelial cells in (+SB431542). Addition of both ROCKi and Pifithrin alpha (in presence of SB431542) increases the colony forming efficiency of freshly isolated murine distal total epithelial cells (isolated from the lung without trachea). […] Pifithrin alpha also causes an increase in the size of the organoids (C). […] The drop in mean diameter of the Pifithrin alpha+ROCKi group is likely due to space constraints because of the large number of organoids per well.
Further described herein is a cell culture including a quantity of human stem cells, or stem cell derived cells in a cell culture media including at least one molecule including: a RHO-kinase (ROCK) inhibitor, SMAD inhibitor, and p53 inhibitor. In other embodiments, the RHO-kinase inhibitor is Y27632 and the p53 inhibitor is Pifithrin α. In other embodiments, the stem cells are adult stem cells. In other embodiments, the stem cell derived cells are lung epithelial cells. In various embodiments, the aforementioned inhibitors are at a concentration of 0.1-1 uM, 1-5 uM, 5-10 uM, 10-25 uM, 25-50 uM, or 50 uM or more. In various embodiments, the p53 inhibitor is Pifithrin-alpha. For example, this includes a media formulated as follows: 5 mL FBS, 500 uL ITS (100×), 50 uL Fungizone, 500 uL Pen/Strep (100×), DMEM/F12 up to 50 mL, 5 uL SB431542, Pifithrin-alpha 10 uM, ROCKi (Y-27632 dihydrochloride)—10 uM. Also described herein is a quantity of organoids including cells made by the aforementioned methods. In various embodiments, the organoids include proximal and/or distal cells. In various embodiments, the distal cells are alveolar type II progenitors and/or Scgb1a1 positive club progenitor cells.

The test system of another test is freshly isolated cells. Nature of the test: Freshly isolated cells cultured with small molecules at different time points (proliferation). In kind it is cell-based. Conditions: different time points (FIG. 2).
Excerpt: as §1
FIG. 2. Freshly isolated cells cultured with small molecules at different time points.

[2] abbreviates: freshly isolated cells, in presence of SB431542 (FIG. 13).

In the case of `Cc1ccc(C(=O)Cn2c3c(sc2=N)CCCC3)cc1` [Pifithrin α], in test [1] (setting [2]), the colony forming efficiency entry was “increases” and the “size of the organoids (mean diameter)” value is “increase”. In test [1] (freshly isolated distal cells, FIG. 13), the “survival and proliferation of the stem cells (inferred from CFE and organoid size)” value is “increase survival and proliferation”. The organoids size result in test [1] (freshly isolated murine lung epithelial cells (FIG. 3)) was “increase”. The proliferation of cells result in the test with freshly isolated cells is “have an effect on proliferation”.
